# US20190167647A1, “PHARMACEUTICAL COMPOSITION FOR STROKE TREATMENT BASED ON AMPK INHIBITION” (INDUSTRY ACADEMY COOPERATION FOUNDATION OF SEJONG UNIVERSITY, priority 2016, published 2019)
# Experiments:
# neuronal cells = assay: H2O2 neurotoxicity with chelators (LDH secretion); format: cell-based
# Method: There is reported that intracellular free zinc is increased in a neurotoxicity mechanism due to hydrogen peroxide, wherein hydrogen peroxide toxicity is reduced when the cells are treated using the zinc chelator. […] Therefore, in order to monitor whether effects of the drug #28 are associated with a reduction of zinc in the above case, the neuronal cells were treated with hydrogen peroxide (H2O2), a zinc chelator such as TPEN or CaEDTA and a calcium chelator such as ZnEDTA, followed by monitoring neurotoxicity (LDH secretion).
# [1] = system: cultured cerebral cortex neurons of a mouse; assay: H2O2-induced neurotoxicity, propidium iodide staining; format: cell-based; conditions: H2O2 100 μM 4.5 hours; 10 μM drug; excepted drugs = no significant inhibition
# Method: More particularly, the neurotoxicity model for observation of neurotoxicity inhibitory effects includes excitotoxicity, oxidative damage, etc. which are classified as a cause mechanism of stroke. NMDA (N-methyl-D-aspartate) was used as the excitotoxicity model while the oxidative model used herein was a hydrogen peroxide (H2O2) toxicity model. First, using NMDA (50 μM) or H2O2 (100 μM), the cultured cerebral cortex neurons of a mouse were treated for 1.5 hours and 4.5 hours, respectively, resulting in induction of neurotoxicity. The neurons were further treated with the selected 12 drugs (10 μM) as well as the existing selected drug #28 (20 μM). Then, after staining the neurons with propidium iodide (PI), the stained cells were quantified to determine a degree of cell death.
# mouse = conditions: administered to a mouse; cited from earlier work
# [2] = system: cultured cerebral cortex neurons; assay: Zinc neurotoxicity, TUNEL staining and LDH assay; format: cell-based, mouse; conditions: 300 μM ZnCl2 10 min, 10 hours later; 20 μM compound
# Method: Cerebral cortex neurons of a mouse used in the present invention were extracted from the mouse embryos brain and cultured, followed by further culturing the same using a Dulbecco's modified Eagle's medium (DMEM, Gibco, Grand Island, N.Y., US) containing 5% fetal bovine serum (FBS) and 5% horse serum (HS) under conditions of 95% humidity, 5% CO2 and 37° C. temperature. For activation and differentiation of the above cells, these cells were proliferated at a density of 2×10^4 cells in 24-well tissue culture plate. Further, prior to treatment using zinc and the compounds, the cells were incubated in MEM medium without FBS and HS.
# More particularly, the cultured cerebral cortex neurons according to the embodiment of the present invention were treated with 300 μM zinc (ZnCl2) for 10 minutes then removed. 10 hours later, cytotoxicity was observed by TUNEL staining or LDH (Lactate Dehydrogenase). Further, these cells were treated with AMPK inhibitor, that is, 20 μM compound C (+Cpd C, Tocris), followed by observation whether neurotoxicity is reduced or not.
# [3] = molecular target: T1, recombinant AMPK (α2/β1/γ1) (Homo sapiens, UniProt P54646); assay: AMPK enzymatic activity assay (CycLex kit); format: biochemical; conditions: 10 μM
# T1 construct: purchased CycLex, Japan
# T1 sequence (P54646 whole entry): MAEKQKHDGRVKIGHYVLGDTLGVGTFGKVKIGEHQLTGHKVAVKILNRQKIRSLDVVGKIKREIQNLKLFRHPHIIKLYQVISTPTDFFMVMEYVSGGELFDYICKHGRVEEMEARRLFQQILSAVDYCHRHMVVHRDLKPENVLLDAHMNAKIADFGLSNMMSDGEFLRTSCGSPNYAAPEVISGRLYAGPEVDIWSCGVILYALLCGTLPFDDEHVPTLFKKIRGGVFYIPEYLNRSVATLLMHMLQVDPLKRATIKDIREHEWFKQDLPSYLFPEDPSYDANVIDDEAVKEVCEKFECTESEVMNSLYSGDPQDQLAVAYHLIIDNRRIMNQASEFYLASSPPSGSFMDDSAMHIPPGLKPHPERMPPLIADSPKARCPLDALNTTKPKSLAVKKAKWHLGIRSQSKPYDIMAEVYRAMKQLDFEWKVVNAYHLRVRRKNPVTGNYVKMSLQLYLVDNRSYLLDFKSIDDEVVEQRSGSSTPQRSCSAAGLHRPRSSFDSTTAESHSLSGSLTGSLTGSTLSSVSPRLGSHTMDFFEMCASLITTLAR
# T1 sequence (Q9Y478 whole entry partner): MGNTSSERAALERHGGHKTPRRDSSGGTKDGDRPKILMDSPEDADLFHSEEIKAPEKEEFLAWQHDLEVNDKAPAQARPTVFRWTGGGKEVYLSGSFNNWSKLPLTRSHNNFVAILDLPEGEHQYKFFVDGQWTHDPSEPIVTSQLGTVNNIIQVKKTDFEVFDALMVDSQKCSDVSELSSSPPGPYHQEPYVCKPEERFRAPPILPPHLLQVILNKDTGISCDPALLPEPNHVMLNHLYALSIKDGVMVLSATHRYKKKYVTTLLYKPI
# T1 sequence (P54619 whole entry partner): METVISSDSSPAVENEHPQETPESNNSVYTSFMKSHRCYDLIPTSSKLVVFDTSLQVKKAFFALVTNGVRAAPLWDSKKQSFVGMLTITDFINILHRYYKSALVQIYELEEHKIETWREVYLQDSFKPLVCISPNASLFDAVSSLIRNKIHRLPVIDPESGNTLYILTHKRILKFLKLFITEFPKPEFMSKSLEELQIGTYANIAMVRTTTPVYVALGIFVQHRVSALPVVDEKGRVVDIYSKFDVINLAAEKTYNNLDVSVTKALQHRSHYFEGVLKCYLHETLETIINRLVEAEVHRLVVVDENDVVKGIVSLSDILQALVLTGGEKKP
# Method: More particularly, AMPK enzymatic activity was measured by an AMPK activity assay kit (CycLex, Japan) and recombinant AMPK (α2/β1/γ1 CycLex, Japan).
# cerebral cortex neurons = assay: Western blot of Bim and caspase-3 after zinc treatment; format: cell-based, mouse; conditions: 300 μM ZnCl2, 20 μM compound
# Method: More particularly, the cerebral cortex neurons were treated with 300 μM zinc (ZnCl2) for 2, 3, 4, 5 and 6 hours to induce zinc toxicity. From each sample, protein was separated and subjected to Western blot and treatment using 20 μM compound C (+Cpd C) as an AMPK inhibitor, so as to identify a relationship between the zinc toxicity and apoptosis.
# [4] = Calcium chelation with Fura-2 dye (test tube); format: physicochemical; conditions: Fura-2 dye, test tube
# Method: In order to determine whether the above result is obtained by the chelation of Ca^2+ ions other than the drug #28, protective effects of the drug #28 (10 to 60 μM) after treatment using ionomycin, which is a calcium ion permeable carrier (‘calcium ionophore’) directly increasing the intracellular calcium concentration, were under observation. Further, using a Fura-2 dye that is combined with calcium to represent fluorescence, it was monitored whether the drug #28 is combined with calcium on a test tube and represents chelating effects.
# mouse cortical cultures [5] = assay: TPEN-induced neurotoxicity (LDH secretion); format: cell-based
# Source text: (§1) Generally, application of TPEN as a zinc chelator easily flowing into the cells causes a cell death in the form of typical apoptosis (EDTA is not introduced into the cells). When adding zinc to the above treatment, intracellular free zinc ions are retained thus to reduce neuronal death and further reduce caspase-3 protease activity in the apoptosis process. Under expectation such that: the drug #28 and clioquinol may not only serve as a chelator but also play a role of an ion permeable carrier; these drugs flow into cells as combined with zinc; thereafter, the zinc is removed from the drug because a concentration of free zinc in the cytoplasm is too low; therefore, the concentration of free zinc in the cytoplasm is increased thus to reduce neurotoxicity due to TPEN, caspase-3 activity and neurotoxicity (LDH secretion) were under observation after treatment using zinc, the drug #28 and clioquinol.
# [6] = Free zinc concentration by fluorescent dye (Newport green DCF, FluoZin-3); format: physicochemical; conditions: 20 μM; Newport green DCF or FluoZin-3
# Method: Further, in conjunction with clioquinol (20 μM) or the drug #28 (20 μM), a zinc fluorescent dye, i.e., Newport green DCF (0.5 μM, Kd(Zn)=1 uM) or FluoZin-3 (0.5 μM, Kd(Zn)=15 nM) was used for measurement of free zinc concentration.
# mouse cortical cultures [7] = assay: TPEN-induced caspase-3 activity; format: cell-based
# Source text: as §1
# [8] = system: cultured cerebral cortex neurons of a mouse; assay: Zinc ion permeable carrier test, ZinPyr-1; format: cell-based; conditions: #28 0.05 μM, clioquinol 0.5 μM
# Method: ZinPyr-1 is a fluorescent dye which has a lower Kd value than that of FluoZin-3 and is used to measure a change in a zinc concentration even at a lower concentration. Whether the drug #28 of the present invention can act as an ion permeable carrier was under observation using ZinPyr-1. More particularly, the cultured cerebral cortex neurons of a mouse were treated with ZinPyr-1 then treated with the drug #28 (0.05 μM) and clioquinol (0.5 μM) in a typically used neuronal cell culture medium, so as to determine a change in zinc ion concentrations in the neurons. Also, a non-treatment group was used as a control group.
# Therefore, after adding a further 0.5 μM concentration of zinc to the cell culture medium, a change in zinc concentration in the cells was under observation.
smiles,measurement,setting,value
O=C([O-])CN(CCN(CC(=O)[O-])CC(=O)[O-])CC(=O)[O-].[Ca+2].[Na+].[Na+] [CaEDTA],neurotoxicity caused by hydrogen peroxide,neuronal cells,significantly reduced toxicity
"Cc1ccccc1NC1=NC(=O)/C(=C/c2c[nH]c3ccccc23)S1 [Compound 4B03, (5Z)-5-(1H-Indol-3-ylmethylene)-2-[(2-methylphenyl)amino]-1,3-thiazol-4(5H)-one]",inhibition of H2O2-induced neurotoxicity,[1],other than two drugs
"Cc1cccc(NC2=NC(=O)/C(=C/c3c[nH]c4ccccc34)S2)c1C [Compound 4B04, (5Z)-2-[(2,3-Dimethylphenyl)amino]-5-(1H-indol-3-ylmethylene)-1,3-thiazol-4(5H)-one]",inhibition of H2O2-induced neurotoxicity,[1],other than two drugs
C=C1C(=O)OC(CCCCCCCC)C1C(=O)O (stereo not drawn) [Compound C75],size of infarcted part,mouse,significantly reduces a size of an infracted part
c1cc(-c2cnn3cc(-c4ccc(OCCN5CCCCC5)cc4)cnc23)ccn1 [Compound C],size of infarcted part,mouse,significantly reduces a size of an infracted part
same,zinc neurotoxicity (TUNEL staining and LDH assay),[2],significantly reduced
same,Mean (% remaining activity),[3],5.3000%
same,increase in Bim caused by zinc toxicity,cerebral cortex neurons,reduce
same,increase in caspase-3 activity caused by zinc toxicity,cerebral cortex neurons,reduce
"O=C(O)CN(CCN(CC(=O)O)CC(=O)O)CC(=O)O [EDTA, reference compound]",chelating effects for calcium,[4],good chelating effects at a low calcium concentration
"c1ccc(CN(CCN(Cc2ccccn2)Cc2ccccn2)Cc2ccccn2)nc1 [TPEN, N,N,N′,N′-tetrakis (2-pyridylmethyl) ethylenediamine]",neurotoxicity caused by hydrogen peroxide,neuronal cells,reduced neurotoxicity caused by hydrogen peroxide
O=C([O-])CN(CCN(CC(=O)O)CC(=O)O)CC(=O)[O-].[Zn+2] [ZnEDTA],neurotoxicity caused by hydrogen peroxide,neuronal cells,did not inhibit toxicity
"Oc1c(I)cc(Cl)c2cccnc12 [clioquinol, reference compound]",neurotoxicity by TPEN,mouse cortical cultures [5],decrease neurotoxicity by TPEN
same,free zinc ions,[6],reduce free zinc ions
same,caspase-3 activity induced by TPEN,mouse cortical cultures [7],significantly reduce caspase-3 activity induced by TPEN
same,"increase of zinc in neurons, general culture conditions",[8],an increase of zinc by clioquinol was observed
[Cl-].[Cl-].[Zn+2] [zinc],neurotoxicity by TPEN,mouse cortical cultures [5],decrease neurotoxicity by TPEN
same,caspase-3 activity induced by TPEN,mouse cortical cultures [7],significantly reduce caspase-3 activity induced by TPEN
